Results taken from ChEMBL document CHEMBL3137667, “[Drug-induced liver injury; fourteenth updated edition of the bibliographic database of liver injuries and related drugs]” (Gastroenterol Clin Biol, 2004).

Experiments:
[1] = Highest frequency of acute liver toxicity observed during clinical trials, expressed as a percentage. [column '% AIGUE' in source]; conditions: human
[2] = human
[3] = human; remark: listed apart in the source
[4] = human; remark: listed apart in the source
[5] = human; remark: listed apart in the source
[6] = human; remark: listed apart in the source
[7] = human; remark: listed apart in the source
[8] = human, serum
[9] = human, serum, 4383 h
[10] = human; remark: listed apart in the source
[11] = Highest frequency of moderate liver toxicity observed during clinical trials, expressed as a percentage. [column '% BIOL' in source]; conditions: human
[12] = human; remark: listed apart in the source
[13] = human; remark: listed apart in the source
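For Hepatotoxicity (association with vascular disease) in this document: count of indexed literature references reporting vascular liver injury in humans, e.g. peliosis hepatitis, hepatic veno-occlusive disease or Budd-Chiari syndrome.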
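For Hepatotoxicity (benign tumour) in this document: value is a count of indexed literature references citing a benign tumour confirmed by histopathology.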
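For Hepatotoxicity (choleostasis) in this document: human cholestatic liver injury, shown by histopathology or by peak ALT or AST elevation over alkaline phosphatase ratio below 2, value counts indexed literature reports.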
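For Hepatotoxicity (chronic liver disease) in this document: chronic liver injury confirmed by histopathology or persistently raised serum aminotransferase activity beyond 6 months, value given as the count of indexed literature references.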
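For Hepatotoxicity (cirrhosis) in this document: value is a count of indexed literature references reporting cirrhosis confirmed by histopathology.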
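For Hepatotoxicity (cytolytic) in this document: human cytolytic liver injury, shown by histopathology or by a ratio above 5 of peak ALT or AST elevation to alkaline phosphatase elevation, value counts indexed references.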
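For Hepatotoxicity (granulomatous hepatitis) in this document: value is a count of indexed literature references reporting granulomatous liver disease confirmed by histopathology.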
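For Hepatotoxicity (malignant tumour) in this document: malignant tumour confirmed by histopathology, value gives the count of indexed literature references reporting it.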
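For Hepatotoxicity (severe hepatitis) in this document: human clinical data: severe hepatitis, meaning potentially life-threatening liver failure or clinically observed cases, the value counts how many indexed literature references report it.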
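For Hepatotoxicity (steatosis) in this document: steatosis confirmed by histopathology, value is the count of indexed references.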

| SMILES | Hepatotoxicity (acute) ([1]; Liver) | Hepatotoxicity (association with vascular disease) [2] | Hepatotoxicity (steatosis) [3] | Hepatotoxicity (malignant tumour) [4] | Hepatotoxicity (severe hepatitis) ([5]; Liver) | Hepatotoxicity (choleostasis) ([6]; Liver) | Hepatotoxicity (cirrhosis) [7] | Hepatotoxicity (moderate) [8] | Hepatotoxicity (chronic liver disease) [9] | Hepatotoxicity (cytolytic) ([10]; Liver) | Hepatotoxicity (moderate) ([11]; Liver) | Hepatotoxicity (benign tumour) [12] | Hepatotoxicity (granulomatous hepatitis) ([13]; Liver) | Hepatotoxicity (acute) [1] | Hepatotoxicity (severe hepatitis) [5] | Hepatotoxicity (choleostasis) [6] | Hepatotoxicity (cytolytic) [10] | Hepatotoxicity (moderate) [11] | Hepatotoxicity (granulomatous hepatitis) [13] |
| --- | --- | --- | --- | --- | --- | --- | --- | --- | --- | --- | --- | --- | --- | --- | --- | --- | --- | --- | --- |
| CC(C)(C)NCC(O)c1ccc(O)c(CO)c1 (stereo not drawn) [ALBUTEROL] | 4% | 0 | 0 | 0 | 0 | 0 | 0 | 0 | 0 | 0 | 0% | 0 | 0 |  |  |  |  |  |  |
| CCn1nc(C(=O)O)c(=O)c2cc3c(cc21)OCO3 [CINOXACIN] |  | 0 | 0 | 0 |  |  | 0 | 3 | 0 |  |  | 0 |  | 0% | 0 | 0 | 0 | 1% | 0 |
| O=c1oc2ccccc2c(O)c1Cc1c(O)c2ccccc2oc1=O [DICUMAROL] |  | 0 | 0 | 0 |  |  | 0 | 3 | 0 |  |  | 0 |  |  | 0 | 0 | 0 | 0% | 0 |
| CC(C)(C(=O)O)c1ccc(C(O)CCCN2CCC(C(O)(c3ccccc3)c3ccccc3)CC2)cc1 (stereo not drawn) [FEXOFENADINE] |  | 0 | 0 | 0 | 0 | 0 | 0 | 1 | 0 | 0 | 1.8% | 0 | 0 |  |  |  |  |  |  |
| CO[C@@]1(NC(=O)CSC(F)F)C(=O)N2C(C(=O)O)=C(CSc3nnnn3CCO)CO[C@@H]21 [FLOMOXEF] |  | 0 | 0 | 0 |  |  | 0 | 55 | 0 |  |  | 0 |  | 0% | 0 | 0 | 0 | 33.3% | 0 |
| C#C[C@]1(O)CC[C@H]2[C@@H]3CCC4=CC(=O)CC[C@@H]4[C@H]3CC[C@@]21CC [LEVONORGESTREL] |  | 0 | 0 | 0 | 0 | 0 | 0 | 1 | 0 | 0 | 0.4% | 0 | 0 |  |  |  |  |  |  |
| CC(=O)NC[C@H]1CN(c2ccc(N3CCOCC3)c(F)c2)C(=O)O1 [LINEZOLID] |  | 0 | 0 | 0 |  |  | 0 | 1 | 0 |  |  | 0 |  |  | 0 | 0 | 0 | 1% | 0 |
| C#CC(C)(O)CC (stereo not drawn) [MEPARFYNOL] |  | 0 | 0 | 0 |  |  | 0 | 0 | 0 |  |  | 0 |  |  | 0 | 1 | 0 | 0% | 0 |
| CC1CS(=O)(=O)CCN1/N=C/c1ccc([N+](=O)[O-])o1 (stereo not drawn) [NIFURTIMOX] |  | 0 | 0 | 0 | 0 | 0 | 0 | 0 | 0 | 0 | 0% | 0 | 0 |  |  |  |  |  |  |
| Oc1c(Cl)c(Cl)c(Cl)c(Cl)c1Cl [PENTACHLOROPHENOL] |  | 0 | 1 | 0 |  |  | 0 | 0 | 1 |  |  | 0 |  |  | 0 | 0 | 0 | 0% | 0 |
| CC(C)NCC(O)COc1cccc2[nH]ccc12 (stereo not drawn) [PINDOLOL] |  | 0 | 0 | 0 |  |  | 0 | 1 | 0 |  |  | 0 |  | 0% | 0 | 0 | 0 | 7% | 0 |
| Nc1ccc(S(=O)(=O)Nc2ccccn2)cc1 [SULFAPYRIDINE] |  | 0 | 0 | 0 | 0 |  | 0 | 0 | 0 |  | 0% | 0 |  |  |  | 0 | 0 |  | 0 |
| NC(=O)c1csc([C@@H]2O[C@H](CO)[C@@H](O)[C@H]2O)n1 [TIAZOFURIN] |  | 0 | 0 | 0 |  |  | 0 | 7 | 0 |  |  | 0 |  | 0% | 0 | 0 | 0 | 62.5% | 0 |
| Oc1ncc(N(CCCl)CCCl)c(O)n1 [URACIL MUSTARD] |  | 0 | 0 | 0 | 0 | 0 | 0 | 0 | 1 | 1 | 0% | 0 | 0 |  |  |  |  |  |  |
